pIC50: −log10 of the molar value.
Assays:
[1] = molecular target: T1, mouse KIF18A (residues 1-467) (Mus musculus, UniProt Q91WD7); assay: KIF18A MT-ATPase motor activity, ADP-Glo luminescence assay (Example 19); format: biochemical
T1 construct: mouse KIF18A (residues 1-467, 4 nM); made in house
Experimental: (§1) A trio of KIF18A inhibitors (Compound C9, Compound C11, and Compound C12) were synthesized and tested in vitro for KIF18A inhibitory activity. […] The values represent mean t SEM from three independent experiments. […] As in vivo studies in mice were planned, the mouse KIF18A inhibitory effects of Compound C9 and C12 were assayed.
(§2) KIF18A compounds C9, C11, C12 were 2-fold serially diluted over a 22-point concentration range in DMSO using 384-well plate (Corning). Recombinant truncated kinesin motor proteins (human KIF18A (residues 1-467, 4 nM), mouse KIF18A (residues 1-467, 4 nM)) were expressed and purified. ADP-Glo luminescence assay (Promega) was used to measure the MT-ATPase motor activity. Porcine brain MTs were procured from Cytoskeleton Inc. Compounds were pre-incubated for <30 min in reaction buffer (15 mM Tris, pH 7.5, 10 mM MgCl2, 0.01% Pluronic F-68, 2% DMSO, 1 μM paclitaxel, 30 μg/mL MTs) with motor proteins at concentrations indicated above, 30 μM ATP was added to initiate the enzymatic reaction for 15 min at room temperature (RT). ADP-Glo reagents were added according to manufactures protocol, the luminescence intensity proportional to ADP present was measured using an EnVision plate reader (Perkin Elmer). Raw luminescence signal data was normalized to POC (percentage of positive control) and then Activity (%) was computed [POC=100×(sample signal−negative control signal)+(positive control signal−negative control signal). Activity (%)=POC−100]. The positive control (enzyme+substrate) and negative control (substrate alone) had equivalent concentrations of DMSO. Curve-fitting and IC50 values were determined by 4-parameter non-linear regression equation (variable slope) using GraphPad Prism 7.05 (GraphPad Software).

[2] = molecular target: T2, human KIF18A (residues 1-467) (Homo sapiens, UniProt Q8NI77); assay: as above; format: biochemical
T2 construct: human KIF18A (residues 1-467, 4 nM); made in house
T2 sequence (Q8NI77 1-467): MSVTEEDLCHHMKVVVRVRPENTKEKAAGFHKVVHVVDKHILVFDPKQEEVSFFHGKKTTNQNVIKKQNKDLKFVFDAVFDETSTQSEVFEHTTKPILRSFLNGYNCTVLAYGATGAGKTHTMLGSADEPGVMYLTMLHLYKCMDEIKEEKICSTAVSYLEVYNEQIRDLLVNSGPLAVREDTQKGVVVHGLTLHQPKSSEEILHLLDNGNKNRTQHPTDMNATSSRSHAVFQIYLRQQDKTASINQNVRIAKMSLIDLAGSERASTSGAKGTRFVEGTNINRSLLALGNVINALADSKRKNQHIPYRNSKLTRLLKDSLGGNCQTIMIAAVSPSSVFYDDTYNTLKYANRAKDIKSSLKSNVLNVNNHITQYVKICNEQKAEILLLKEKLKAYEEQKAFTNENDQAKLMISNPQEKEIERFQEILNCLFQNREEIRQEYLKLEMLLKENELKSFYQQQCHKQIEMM
T2 sequence (P02550 whole entry partner, the tested form may be a part): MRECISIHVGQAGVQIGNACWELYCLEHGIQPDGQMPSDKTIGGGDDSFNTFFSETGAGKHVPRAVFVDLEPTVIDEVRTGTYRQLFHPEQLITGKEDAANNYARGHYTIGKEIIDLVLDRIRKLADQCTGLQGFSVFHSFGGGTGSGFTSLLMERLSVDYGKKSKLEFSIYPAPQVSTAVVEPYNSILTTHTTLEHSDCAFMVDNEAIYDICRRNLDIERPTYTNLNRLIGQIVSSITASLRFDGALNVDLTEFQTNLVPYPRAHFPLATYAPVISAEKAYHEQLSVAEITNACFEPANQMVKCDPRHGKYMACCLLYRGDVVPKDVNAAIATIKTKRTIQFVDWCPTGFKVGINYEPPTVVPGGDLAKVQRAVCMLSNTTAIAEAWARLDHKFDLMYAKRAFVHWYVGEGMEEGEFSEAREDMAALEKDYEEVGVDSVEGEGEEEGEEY
T2 sequence (P02554 whole entry partner, the tested form may be a part): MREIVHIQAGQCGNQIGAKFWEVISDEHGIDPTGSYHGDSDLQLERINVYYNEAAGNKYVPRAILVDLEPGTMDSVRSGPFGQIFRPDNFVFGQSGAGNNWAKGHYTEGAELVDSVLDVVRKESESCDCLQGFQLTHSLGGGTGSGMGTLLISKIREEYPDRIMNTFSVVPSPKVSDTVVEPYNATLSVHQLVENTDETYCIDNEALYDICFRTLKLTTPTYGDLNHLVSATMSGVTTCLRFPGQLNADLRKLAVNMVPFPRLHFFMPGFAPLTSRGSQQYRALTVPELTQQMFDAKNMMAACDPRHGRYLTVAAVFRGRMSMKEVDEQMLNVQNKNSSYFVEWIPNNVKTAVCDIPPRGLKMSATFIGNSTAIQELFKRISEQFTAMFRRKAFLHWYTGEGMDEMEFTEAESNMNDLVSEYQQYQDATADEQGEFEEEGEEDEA
Experimental: as §1, §2

MDA-MB-157 cells = assay: pH3 and PCM spot EC50 determination; settings: pH3 and PCM spot EC50 values
OVCAR-3 tumors = assay: OVCAR-3 Tumor Xenograft Efficacy Study (IP); settings: 25 mg/kg IP once daily for 18 consecutive days
Experimental: Mice were injected with human OVCAR-3 cells (5.0×10^6) subcutaneously in the right flank. Animals with established tumors were randomized into four groups (n=10 per group) with average tumor volume of 130 mm^3. […] Treatment started on day 24 post-tumor implantation and treatment terminal on day 42. Tumor volumes and body weights were recorded twice per week using a digital caliper and analytical lab scale, respectively. […] The percentage of tumor growth inhibition (% TGI) was calculated as % TGI relative to vehicle control: % TGI=100−[(Treated−Initial Volume)/(Control−Initial Volume)×100]. The percentage of tumor regression (% TR) was calculated as % TR compared final tumor volume to the initial tumor volume: % TR=100−[(Final Volume)/(Initial Volume)×100]. Data was graphed using GraphPad Prism 7.05. Statistical analysis was performed on treatment groups for tumor growth and blood counts using repeated measures ANOVA and one-way ANOVA, respectively, followed by Dunnett's multiple comparisons test.

[3] = Tolerability (body weight, blood counts) in tumor-bearing nude mice; format: in vivo, mouse; settings: 18 days
Experimental: Female athymic nude mice were injected with 5×10^6 cells in 0.1 mL subcutaneously in the right flank. After tumors were established (average tumor volume of 150 mm^3), animals were randomized into 4 treatment groups (vehicle alone, KIF18A inhibitor at 10, 30, or 100 mg/kg) with 10 animals per group and treated orally once per day (PO, QD) starting on day 25 post-tumor implantation. Tumor measurement was calculated from the length, width and height of tumors measured with a PRO-MAX electronic digital caliper (Japan Micrometer Mfg. Co. LTD). The tumor volume was calculated as [L×W×H] and expressed in mm^3. Tumor volume and animal body weight measurements were determined twice per week (study start day 25, study end day 45). A single mouse was removed from the study (KIF18A inhibitor 30 mg/kg group) due to abdominal distention, a finding likely unrelated to compound.
Data was plotted using GraphPad Prism software (V7.0.4), tumor volume and body weight data are expressed as means plus or minus standard error of the mean and plotted as a function of time. Statistical significance of observed differences between growth curves were calculated using SLACR package (v.1.0.3). Statistical significance for tumor regressions were performed by paired Student's t-Test on the initial and final tumor volumes with significant tumor regression p-values (***p≤0.0001) for all three KIF18A inhibitor treatment groups. KIF18A inhibitor dose 10 mg/kg (81% regression, 5 of 10 tumor-free), 30 mg/kg (98% regression, 8 of 9 tumor-free), and 100 mg/kg (97% regression, 7 of 10 tumor-free).
Female athymic nude mice were injected with 5×10^6 OVCAR-8 cells in 0.1 mL subcutaneously in the right flank. […] Tumor volume and animal body weight measurements were determined twice per week (study start day 25, study end day 47). Tumor measurements, formulas, and regression analysis as described above for FIGS. 5A-5B. Data was plotted using GraphPad Prism software (V7.0.4), tumor volume and body weight data are expressed as means plus or minus standard error of the mean and plotted as a function of time. Statistical significance of observed differences between growth curves were calculated using SLACR package (v.1.0.3).
(§3) Data was graphed using GraphPad Prism 7.05.
(§4) Tumor volume and body weight assessment performed as described above. After the final dose on day 36, plasma pharmacokinetic analysis was performed as described above. All data analysis was performed as described above.
(§5) Animals were dosed IP daily with vehicle alone, C9 (50 or 100 mg/kg), or C12 (25 or 50 mg/kg). […] Tumor volume and body weight assessment performed as described above. After the final dose on day 46, plasma pharmacokinetic analysis was performed as described above except blood was drawn by retro-orbital bleed method.

[4] = Terminal plasma pharmacokinetic analysis in tumor-bearing mice; format: in vivo, mouse
Experimental: as §3, §4, §5

OVCAR-8 tumors = assay: OVCAR-8 Tumor Xenograft Efficacy Study (IP); format: in vivo, mouse
Experimental: as §5

[5] = tested on: human mammary epithelial cells (HMEC); assay: BrdU incorporation assay in normal cells; format: cell-based; settings: 48 hours
Experimental: (§6) The effect KIF18A inhibitor treatment has on proliferation of normal somatic cells (e.g., not neoplastic cells) was tested by assaying proliferation of human bone marrow mononuclear cells (HBMNCs), primary human foreskin fibroblast cells (hFSF) and human mammary epithelial cells via a 5-bromo-2′-deoxyuridine (BrdU) incorporation assay in which BrdU, an analog of the nucleoside thymidine, is used to identify proliferating cells (Payton et. al., Molecular Cancer Therapeutics, 17(12):2575-85 (2018)). Cells were analyzed on BD LSRFortessa flow cytometer using BD FACSDiva software (BD Biosciences), and post-acquisition data analysis was performed using FSC-Express software (De Novo). The percentage of BrdU positive gated events on the stacked DNA content histograms were reported.

[6] = tested on: human foreskin fibroblast (hFSF) cells; assay: BrdU incorporation assay in normal cells; format: cell-based; settings: 48 hours
Experimental: as §6

[7] = tested on: human bone marrow mononuclear cells (HBMNC); assay: BrdU cell cycle analysis and live cell count in normal cells; format: cell-based; settings: 96 h; ispinesib 0.05 μM, paclitaxel 0.05 μM, palbociclib 1 μM
[8] = tested on: human bone marrow mononuclear cells (HBMNC); assay: as above; format: cell-based
Experimental: as §6
To further examine the effects of KIF18A inhibitor treatment on HBMNC, two normal donors were assessed using the BrdU coupled cell cycle assay and cell count assay (96 hours) was. […] In particular, the amount of BrdU-stained proliferating cells treated with Ispinesib, paclitaxel, or a CDK 4/6 inhibitor (palbociclib) was far less than the amount of vehicle control-treated BrdU-stained cells. […] KIF18A inhibitor treatment was also analyzed for impact on live cell count. After 96 hours, live cells were counted by Vi-CELL XR Cell Viability Analyzer (Beckman Coulter).
To investigate whether KIF18A inhibitors could circumvent this normal cell toxicity barrier, we examined the effects of Compounds C9 and C11 on a panel of cycling normal somatic cell types. First, we treated human bone marrow mononuclear cells (HBMNC) from two normal donors with DMSO, Compound C9 and C11 at 1 μM, ispinesib at 0.05 μM, paclitaxel at 0.05 μM, or palbociclib at 1 μM for 48 h (cell cycle) or 96 h (cell growth).
BrdU and cell cycle analysis. Human bone marrow mononuclear cells (HBMNCs) from two normal donors (#37612, #37534) were cultured for 8 days in defined media as previously described (Payton et al 2018). HBMNCs were seeded in 24-well plate at 1.2×10^6 cells per well in duplicate plates. Cells were treated with DMSO, Compound C9 (1 μM), Compound C11 (1 μM), ispinesib (0.05 μM), paclitaxel ([…]), or palbociclib (1 μM). Cells were collected at 48 h (cell cycle) and 96 h (cell growth). The first set of plates were pulsed with BrdU for 2 h and processing for BrdU cell cycle analysis as previously described (Payton et al 2018). Cells were analyzed on BD LSRFortessa flow cytometer running BD FACSDiva software and post-acquisition data analysis was performed using FSC-Express software. Data was reported for the percentage of BrdU and subG1 gated populations. The second set of plates were collected, and cells counted using Vi-CELL XR Cell Viability Analyzer (Beckman Coulter).

[9] = OVCAR-3 study, C9 100 mg/kg, C12 25 mg/kg IP daily

T1 sequence (Q91WD7 1-467): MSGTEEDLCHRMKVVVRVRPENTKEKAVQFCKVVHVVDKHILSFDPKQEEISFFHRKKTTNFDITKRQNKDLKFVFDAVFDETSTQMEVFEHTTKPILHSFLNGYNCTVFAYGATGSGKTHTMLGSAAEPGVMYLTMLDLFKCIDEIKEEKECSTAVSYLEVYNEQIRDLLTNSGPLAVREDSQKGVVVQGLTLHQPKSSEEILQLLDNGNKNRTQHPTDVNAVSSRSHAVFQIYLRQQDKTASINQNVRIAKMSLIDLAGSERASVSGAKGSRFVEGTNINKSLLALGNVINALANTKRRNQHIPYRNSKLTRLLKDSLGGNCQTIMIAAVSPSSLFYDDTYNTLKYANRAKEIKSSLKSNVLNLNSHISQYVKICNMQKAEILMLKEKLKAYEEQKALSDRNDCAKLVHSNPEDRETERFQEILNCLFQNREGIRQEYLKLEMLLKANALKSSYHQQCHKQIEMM
T1 sequence (P02550 whole entry partner, the tested form may be a part): as the sequence (P02550 whole entry partner, the tested form may be a part) above
T1 sequence (P02554 whole entry partner, the tested form may be a part): as the sequence (P02554 whole entry partner, the tested form may be a part) above

| Compound | pIC50 [1] | pIC50 [2] | improvement of cell potency relative to a control compound (MDA-MB-157 cells) | tumor regression (OVCAR-3 tumors) | tolerability (body weight) ([3]; CAL-51 study, C9 100 mg/kg, C12 25 mg/kg IP daily) | monocyte count ([3]; OVCAR-3 study, 25 mg/kg IP daily, p=0.043) | body weight loss or changes in blood counts [3, 9] | tolerability [3, 9] | tolerability (body weight) ([3]; OVCAR-8 study, C9 50 or 100 mg/kg, C12 25 or 50 mg/kg IP daily) | plasma AUC in OVCAR-8 study relative to the other efficacy studies ([4]; at matched doses) | AUC ([4]; nude, mouse, plasma, OVCAR-3 study, 25 mg/kg IP, after the final dose) | tumor regression (OVCAR-8 tumors; 25 mg/kg IP once daily for 18 consecutive days) | tumor regression (OVCAR-8 tumors; 50 mg/kg IP once daily for 18 consecutive days) | BrdU incorporation relative to DMSO treated cells [5] | BrdU incorporation relative to DMSO treated cells [6] | reduction in cell growth [7] | cell cycle DNA content profiles ([8]; 48 h, C9, C11, palbociclib 1 μM, ispinesib 0.05 μM, paclitaxel) | BrdU incorporation (cell cycle analysis) relative to DMSO/vehicle control ([8]; two normal donors, 48 h, C9, C11, palbociclib 1 μM, ispinesib 0.05 μM, paclitaxel) | BrdU incorporation (cell cycle analysis) relative to DMSO/vehicle control ([8]; two normal donors, 48 h, C9, C11, palbociclib 1 μM, ispinesib 0.05 μM, paclitaxel, listed as ispinesib) | live cell count relative to vehicle control ([8]; two normal donors, 96 hours) |
| --- | --- | --- | --- | --- | --- | --- | --- | --- | --- | --- | --- | --- | --- | --- | --- | --- | --- | --- | --- | --- |
| C[C@@H]1CN(c2cccc(NC(=O)c3ccc(NS(=O)(=O)CCO)cc3N3CCC4(CC3)CC4)n2)CCO1 [Compound C12, (R)-4-((2-Hydroxyethyl)sulfonamido)-N-(6-(2-methylmorpholino)pyridin-2-yl)-2-(6-azaspiro[2.5]octan-6-yl)benzamide] | 7.41 | 7.40 | > 120 fold | 46% | well-tolerated | decrease on monocytes | no evidence of body weight loss or changes in blood counts | well-tolerated | well-tolerated | 2.8 fold | 53 µM·h | 19% | 75% | – | – | – | – | – | – | – |
| Cc1ccc(C(=O)N(CCCN)[C@@H](c2nc3cc(Cl)ccc3c(=O)n2Cc2ccccc2)C(C)C)cc1 [Ispinesib, reference compound] | – | – | – | – | – | – | – | – | – | – | – | – | – | decrease in BrdU incorporation | decrease in BrdU incorporation | ~88% | marked effects on cell cycle DNA content profiles | far less | clearly cytotoxic | lower cell count |

— patent US20230151432A1, “KIF18A INHIBITORS FOR TREATMENT OF NEOPLASTIC DISEASES” (AMGEN INC., priority 2020, published 2023)
